Source: patent US11752088B2, “Highly concentrated seawater mineral extract and uses thereof” (Oriel Seasalt Company Limited, priority 2015, dated 2023)

Assay: Flow Mediated Dilation (FMD) test
Conditions: in vivo

Compound O=[N+]([O-])OCC(CO[N+](=O)[O-])O[N+](=O)[O-] [Nitroglycerin] has an FMD reading of 10 % FMD and a blood vessel diameter of 5.3 mm.
